Test [1] can be described thus: Inhibition of chymotrypsin-like activity of 20S proteasome. Format: subcellular, Homo sapiens.
Test [2] in a line: Inhibition of trypsin-like activity of 20S proteasome. The format is subcellular, Homo sapiens.
Test [3] can be described thus: Inhibition of peptidyl-glutamyl peptide hydrolase activity of 20S proteasome. The format is subcellular, Homo sapiens.
The next test deals with HepG2. The test is described as follows: Antiproliferative activity against human HepG2 cells. Format: functional, cell-based.
A further test has as its system HL-60. The test is described as follows: Antiproliferative activity against human HL60 cells. The format is functional, cell-based.

A word on the IC50: it is the concentration that gives 50% inhibition.

As for `CC[C@@H](C)[C@H](NC(=O)[C@H](NCc1ccccc1)[C@H](O)[C@H](Cc1ccccc1)NC(=O)OC(C)(C)C)C(=O)c1ccco1`, the IC50 in test [1] was more than 100 µM.

Turning to `CC[C@H](C)[C@H](NC(=O)[C@@H](NC(=O)[C@H](Cc1ccccc1)NC(=O)OC(C)(C)C)C(C)C)C(=O)c1ccco1`, in test [1], the IC50 is more than 100 µM.

`CC[C@@H](C)[C@H](NC(=O)[C@H](Nc1ccccc1)[C@H](O)[C@H](Cc1ccccc1)NC(=O)OC(C)(C)C)C(=O)c1ccco1`: the IC50 in test [1] was more than 100 µM.

Regarding `CC(C)C[C@H](NC(=O)[C@H](Cc1ccccc1)NC(=O)[C@H](Cc1ccccc1)NC(=O)OC(C)(C)C)C(=O)c1ccco1`, the IC50 is 7.85 µM in test [1]; more than 100 µM in test [2]; more than 100 µM in test [3]; 34.2 µM in the test with HepG2; 37.1 µM in the test on HL-60.

The compound `CC(C)[C@H](NC(=O)[C@H](Nc1ccccc1)[C@H](O)[C@H](Cc1ccccc1)NC(=O)OC(C)(C)C)C(=O)c1ccco1` had an IC50 in test [1] of more than 100 µM.

In test [1], `CC(C)[C@H](NC(=O)[C@H](Cc1ccccc1)NC(=O)[C@H](Cc1ccccc1)NC(=O)OC(C)(C)C)C(=O)c1ccco1` had an IC50 of more than 100 µM.

In test [1], `CC(C)C[C@H](NC(=O)[C@@H](NC(=O)[C@H](Cc1ccccc1)NC(=O)OC(C)(C)C)C(C)C)C(=O)c1ccco1` yielded an IC50 of more than 100 µM.

Compound `CC(C)[C@H](NC(=O)[C@H](Cc1ccccc1)NC(=O)OC(C)(C)C)C(=O)N[C@H](C(=O)c1ccco1)C(C)C` showed an IC50 in test [1] of more than 100 µM.

With `CC(C)C[C@H](NC(=O)[C@H](Cc1ccccc1)NC(=O)OC(C)(C)C)C(=O)N[C@@H](CC(C)C)C(=O)c1ccco1`, in test [1], the IC50 is more than 100 µM.

Compound `CC[C@H](C)[C@H](NC(=O)[C@H](CC(C)C)NC(=O)[C@H](Cc1ccccc1)NC(=O)OC(C)(C)C)C(=O)c1ccco1` returned an IC50 in test [1] of more than 100 µM.

The compound `CC(C)C[C@H](NC(=O)[C@H](NCc1ccccc1)[C@H](O)[C@H](Cc1ccccc1)NC(=O)OC(C)(C)C)C(=O)c1ccco1` yielded an IC50 in test [1] of more than 100 µM.

Regarding `CC[C@H](C)[C@H](NC(=O)[C@H](Cc1ccccc1)NC(=O)[C@H](Cc1ccccc1)NC(=O)OC(C)(C)C)C(=O)c1ccco1`, the IC50 in test [1] is more than 100 µM.

On to `CC(C)[C@H](NC(=O)[C@H](NCc1ccccc1)[C@H](O)[C@H](Cc1ccccc1)NC(=O)OC(C)(C)C)C(=O)c1ccco1`, for which, in test [1], the IC50 is more than 100 µM.

As for `CC(C)C[C@H](NC(=O)[C@H](Nc1ccccc1)[C@H](O)[C@H](Cc1ccccc1)NC(=O)OC(C)(C)C)C(=O)c1ccco1`, the IC50 in test [1] was more than 100 µM.

Turning to `CC(C)C[C@H](NC(=O)[C@H](Cc1ccccc1)NC(=O)OC(C)(C)C)C(=O)N[C@H](C(=O)c1ccco1)C(C)C`, in test [1], the IC50 was more than 100 µM.

For the origin of these results see ChEMBL document CHEMBL1139047, “Design and synthesis of a novel class of furan-based molecules as potential 20S proteasome inhibitors” (Bioorg Med Chem Lett, 2007).
